Drawing on US10160762B2, “6-alkyl dihydropyrazolopyrimidinone compounds as PDE2 inhibitors” (Merck Sharp & Dohme Corp., priority 2015, dated 2018), this text covers Ki for 31 compounds.

A word on the Ki: it is a dissociation constant, usually derived from enzyme kinetics or from competition with a known ligand.

This assay concerns the target T1, human PDE2A1 (Homo sapiens, UniProt O00408).
T1 construct: GST; purchased BPS Bioscience (San Diego, Calif.) 60020; host or cells: insect cells
The assay can be described thus: IMAP FP PDE assay, human PDE2A1. Format: biochemical. The note with it: Lab B; read-out: Human PDE2 Ki (nM) Lab B. Summed up:
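FP (IMAP) read after 60 min room-temperature reaction of insect-cell GST-human PDE2A1 with 50 nM FAM-cAMP plus 1000 nM cGMP (pH 7.2 Tris, Mg2+, DTT). Compounds titrated 3-fold over ten points. Apparent Ki derived assuming KM of 10,000 nM; enzyme at 20% substrate turnover.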

T1 sequence (O00408 1-920 isoform O00408-2): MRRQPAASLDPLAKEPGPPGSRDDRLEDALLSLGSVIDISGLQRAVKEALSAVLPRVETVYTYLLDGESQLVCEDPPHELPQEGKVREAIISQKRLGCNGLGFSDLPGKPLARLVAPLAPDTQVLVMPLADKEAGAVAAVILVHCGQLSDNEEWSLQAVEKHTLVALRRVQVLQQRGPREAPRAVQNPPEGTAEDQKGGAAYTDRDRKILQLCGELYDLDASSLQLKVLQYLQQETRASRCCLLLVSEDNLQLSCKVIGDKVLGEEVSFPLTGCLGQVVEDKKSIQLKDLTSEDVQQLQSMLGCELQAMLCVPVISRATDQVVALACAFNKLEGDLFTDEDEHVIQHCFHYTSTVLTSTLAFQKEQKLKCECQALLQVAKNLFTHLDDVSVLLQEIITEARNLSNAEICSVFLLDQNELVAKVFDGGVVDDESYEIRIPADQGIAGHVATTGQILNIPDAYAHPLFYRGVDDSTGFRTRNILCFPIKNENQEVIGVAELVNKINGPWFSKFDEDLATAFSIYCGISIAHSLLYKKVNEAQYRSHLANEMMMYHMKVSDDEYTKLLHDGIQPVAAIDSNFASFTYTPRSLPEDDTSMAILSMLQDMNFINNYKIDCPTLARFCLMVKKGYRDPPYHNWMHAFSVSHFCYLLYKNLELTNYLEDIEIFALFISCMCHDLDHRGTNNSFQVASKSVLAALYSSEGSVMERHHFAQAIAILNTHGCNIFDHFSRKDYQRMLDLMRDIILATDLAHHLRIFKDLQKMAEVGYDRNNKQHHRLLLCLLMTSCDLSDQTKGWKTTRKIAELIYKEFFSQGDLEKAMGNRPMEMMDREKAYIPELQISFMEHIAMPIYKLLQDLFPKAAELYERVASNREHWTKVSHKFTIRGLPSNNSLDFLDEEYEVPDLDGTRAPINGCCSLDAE

`Cc1nc2c(c(CO)nn2C(c2ccc(C(F)(F)F)cc2)C(C)(C)C)c(=O)[nH]1` (single isomer, unassigned) [Example 83, (S)- or (R)-1-(2,2-Dimethyl-1-(4-(trifluoromethyl)phenyl)-propyl)-3-(hydroxymethyl)-6-methyl-1H-pyrazolo[3,4-d]pyrimidin-4(5H)-one]: the Ki was 7.6 nM. Turning to `Cc1nc2c(c(CO)nn2C(c2ccc(C(F)(F)F)c(F)c2)C2CC2)c(=O)[nH]1` (single isomer, unassigned) [Example 91, (S)- or (R)-1-(Cyclopropyl(3-fluoro-4-(trifluoromethyl)phenyl)methyl)-3-(hydroxymethyl)-6-methyl-1H-pyrazolo[3,4-d]pyrimidin-4(5H)-one], the Ki was 1.1 nM. To `Cc1nc2c(c(CF)nn2C(c2ccc(OC(F)(F)F)c(F)c2)C2CC2)c(=O)[nH]1` (single isomer, unassigned) [Example 228, (R)- or (S)-1-(Cyclopropyl(3-fluoro-4-(trifluoromethoxy)phenyl)methyl)-3-(fluoromethyl)-6-methyl-1,5-dihydro-4H-pyrazolo[3,4-d]pyrimidin-4-one] belongs 0.42 nM; to `Cc1nc2c(c(CO)nn2C(c2ccc(OC(F)(F)F)c(F)c2)C2CC2)c(=O)[nH]1` (single isomer, unassigned) [Example 93, (S)- or (R)-1-(Cyclopropyl(3-fluoro-4-(trifluoromethoxy)phenyl)methyl)-3-(hydroxymethyl)-6-methyl-1H-pyrazolo[3,4-d]pyrimidin-4(5H)-one], 1.7 nM. To `Cc1nc2c(c(CO)nn2C(c2ccc(OC(F)(F)F)cc2)C(C)C)c(=O)[nH]1` (single isomer, unassigned) [Example 85, (S)- or (R)-3-(Hydroxymethyl)-6-methyl-1-(2-methyl-1-(4-(trifluoromethoxy)phenyl)propyl)-1H-pyrazolo[3,4-d]pyrimidin-4(5H)-one] belongs 0.89 nM; to `Cc1nc2c(c(CC(F)F)nn2C(C)c2ccc(C(F)(F)F)cc2)c(=O)[nH]1` (single isomer, unassigned) [Example 286], 2 nM. To `Cc1nc2c(c(CO)nn2C(c2ccc(C(F)(F)F)c(F)c2)C(C)C)c(=O)[nH]1` (single isomer, unassigned) [Example 87, (S)- or (R)-1-(1-(3-Fluoro-4-(trifluoromethyl)phenyl)-2-methylpropyl)-3-(hydroxymethyl)-6-methyl-1H-pyrazolo[3,4-d]pyrimidin-4(5H)-one] belongs 3.3 nM; to `Cc1nc2c(c(CO)nn2C2(c3ccc(C(F)(F)F)cc3)CCC2)c(=O)[nH]1` [Example 78, 3-(Hydroxymethyl)-6-methyl-1-(1-(4-(trifluoromethyl)phenyl)cyclobutyl)-1H-pyrazolo[3,4-d]pyrimidin-4(5H)-one], 4.9 nM; to `COCc1nn(C(C)c2ccc(C(F)(F)F)cc2)c2nc(C)[nH]c(=O)c12` (single isomer, unassigned) [Example 279], 17 nM. Consider `Cc1nc2c(c(CF)nn2C(c2ccc(C(F)(F)F)c(F)c2)C2CC2)c(=O)[nH]1` (single isomer, unassigned) [Example 226, (R)- or (S)-1-(Cyclopropyl(3-fluoro-4-(trifluoromethyl)phenyl)methyl)-3-(fluoromethyl)-6-methyl-1,5-dihydro-4H-pyrazolo[3,4-d]pyrimidin-4-one], for which the Ki amounted to 0.32 nM. Then `Cc1nc2c(c(CO)nn2C(C)c2ccc(C(F)(F)F)cc2Cl)c(=O)[nH]1` (single isomer, unassigned) [Example 19, (S)- or (R)-1-(1-(2-Chloro-4-(trifluoromethyl)phenyl)ethyl)-3-(hydroxymethyl)-6-methyl-1H-pyrazolo[3,4-d]pyrimidin-4(5H)-one], with 1.8 nM. To `Cc1nc2c(c(CC(F)F)nn2C(C)c2ccc(C(F)(F)F)cc2)c(=O)[nH]1` (single isomer, unassigned) [Example 285] belongs 111 nM. To `Cc1nc2c(c(CO)nn2C(C)c2ccc(C(F)(F)F)cc2F)c(=O)[nH]1` (single isomer, unassigned) [Example 17, (S)- or (R)-1-(1-(2-Fluoro-4-(trifluoromethyl)phenyl)ethyl)-3-(hydroxymethyl)-6-methyl-1H-pyrazolo[3,4-d]pyrimidin-4(5H)-one] belongs 2.1 nM; to `Cc1nc2c(c(CO)nn2C(C)c2ccc(S(F)(F)(F)(F)F)cc2)c(=O)[nH]1` (single isomer, unassigned) [Example 77], 3.3 nM. As for `Cc1nc2c(c(/C=N\O)nn2C(C)c2ccc(C(F)(F)F)cc2)c(=O)[nH]1` (stereo not shown) [Example 251, (Z)-6-Methyl-4-oxo-1-(1-(4-(trifluoromethyl)phenyl)ethyl)-4,5-dihydro-1H-pyrazolo[3,4-d]pyrimidine-3-carbaldehyde oxime], the inhibition constant (Ki) was determined as 7.2 nM. For `COc1cccc(Cc2nc3c(c(CF)nn3C(C)c3ccc(C(F)(F)F)cc3)c(=O)[nH]2)c1` (single isomer, unassigned) [Example 221, (S)- or (R)-3-(Fluoromethyl)-6-(3-methoxybenzyl)-1-(1-(4-(trifluoromethyl)phenyl)ethyl)-1H-pyrazolo[3,4-d]pyrimidin-4(5H)-one], the Ki was 1.3 nM. On to `Cc1nc2c(c(CC#N)nn2C(C)c2ccc(C(F)(F)F)cc2)c(=O)[nH]1` (single isomer, unassigned) [Example 281], for which the Ki is 2 nM. To `Cc1nc2c(c(CC(F)(F)F)nn2C(c2ccc(C(F)(F)F)cc2)C2(C)CC2)c(=O)[nH]1` (single isomer, unassigned) [Example 59, (S)- or (R)-6-Methyl-1-((1-methylcyclopropyl)(4-(trifluoromethyl)phenyl)methyl)-3-(2,2,2-trifluoroethyl)-1H-pyrazolo[3,4-d]pyrimidin-4(5H)-one] belongs 23 nM. For `Cc1nc2c(c(CO)nn2C(c2ccc(C(C)(C)C)cc2)C2CC2)c(=O)[nH]1` (single isomer, unassigned) [Example 88, (R)- or (S)-1-((4-tert-Butylphenyl)(cyclopropyl)methyl)-3-(hydroxymethyl)-6-methyl-1H-pyrazolo[3,4-d]pyrimidin-4(5H)-one], the Ki was 45 nM.

As for `Cc1nc2c(c(CCO)nn2C(C)c2ccc(C(F)(F)F)cc2)c(=O)[nH]1` (single isomer, unassigned) [Example 250], the Ki is 1.9 nM. For `Cc1nc2c(c(CC(F)(F)F)nn2C(c2ccc(C(F)(F)F)cc2)C(C)(C)C)c(=O)[nH]1` (single isomer, unassigned) [Example 57, (S)- or (R)-1-(2,2-Dimethyl-1-(4-(trifluoromethyl)phenyl)propyl)-6-methyl-3-(2,2,2-trifluoroethyl)-1H-pyrazolo[3,4-d]pyrimidin-4(5H)-one], the Ki came to 62 nM.

Consider `Cc1nc2c(c(C=O)nn2C(C)c2ccc(C(F)(F)F)cc2)c(=O)[nH]1` (stereo not shown) [Example 248, 6-Methyl-4-oxo-1-(1-(4-(trifluoromethyl)phenyl)ethyl)-4,5-dihydro-1H-pyrazolo[3,4-d]pyrimidine-3-carbaldehyde], for which the Ki is 66 nM. `Cc1nc2c(c(CO)nn2C(c2ccc(C(F)(F)F)c(F)c2)C2CC2)c(=O)[nH]1` (single isomer, unassigned) [Example 90, (R)- or (S)-1-(Cyclopropyl(3-fluoro-4-(trifluoromethyl)phenyl)methyl)-3-(hydroxymethyl)-6-methyl-1H-pyrazolo[3,4-d]pyrimidin-4(5H)-one]: the inhibitory constant (Ki) amounted to 78 nM. To `COc1ccc(Cc2nc3c(c(CF)nn3C(C)c3ccc(C(F)(F)F)cc3)c(=O)[nH]2)cc1` (single isomer, unassigned) [Example 219, (S)- or (R)-3-(Fluoromethyl)-6-(4-methoxybenzyl)-1-(1-(4-(trifluoromethyl)phenyl)ethyl)-1H-pyrazolo[3,4-d]pyrimidin-4(5H)-one] belongs 0.96 nM; to `Cc1nc2c(c(C(F)(F)CO)nn2C(C)c2ccc(C(F)(F)F)cc2)c(=O)[nH]1` (single isomer, unassigned) [Example 255], 1.6 nM; to `Cc1nc2c(c(C#N)nn2C(C)c2ccc(C(F)(F)F)cc2)c(=O)[nH]1` (single isomer, unassigned) [Example 252], 16 nM. As to `Cc1nc2c(c(CO)nn2C(c2ccc(C(F)(F)F)cc2)C2(C)CC2)c(=O)[nH]1` (single isomer, unassigned) [Example 24, (R)- or (S)-3-(Hydroxymethyl)-6-methyl-1-((1-methylcyclopropyl)(4-(trifluoromethyl)phenyl)methyl)-1H-pyrazolo[3,4-d]pyrimidin-4(5H)-one], the Ki came out at 1.9 nM. To `Cc1nc2c(c(CO)nn2C(C)c2ccc(OC(F)F)cc2)c(=O)[nH]1` (single isomer, unassigned) [Example 21, (S)- or (R)-1-(1-(4-(Difluoromethoxy)phenyl)ethyl)-3-(hydroxymethyl)-6-methyl-1H-pyrazolo[3,4-d]pyrimidin-4(5H)-one] belongs 3.5 nM; to `Cc1nc2c(c(CC#N)nn2C(C)c2ccc(C(F)(F)F)cc2)c(=O)[nH]1` (single isomer, unassigned) [Example 280], 77 nM. To `Cc1nc2c(c(CF)nn2C(c2ccc(C(F)(F)F)cc2)C(C)(C)C)c(=O)[nH]1` (single isomer, unassigned) [Example 234, (S)- or (R)-1-(2,2-Dimethyl-1-(4-(trifluoromethyl)phenyl)propyl)-3-(fluoromethyl)-6-methyl-1H-pyrazolo[3,4-d]pyrimidin-4(5H)-one] belongs 11 nM; to `Cc1nc2c(c(CO)nn2C(c2ccc(C(C)(C)C)cc2)C2CC2)c(=O)[nH]1` (single isomer, unassigned) [Example 89, (S)- or (R)-1-((4-tert-Butylphenyl)(cyclopropyl)methyl)-3-(hydroxymethyl)-6-methyl-1H-pyrazolo[3,4-d]pyrimidin-4(5H)-one], 0.33 nM.
